# Patent US11292767B2, “Heterocyclic inhibitors of MCT4” (Vettore, LLC, priority 2016, dated 2022)
# Key:
# [1] = Pharmacokinetic assay in rat (IV 3 mg/kg, PO 10 mg/kg); type: in vivo; settings: male, Sprague-Dawley, plasma, read-out: Rat F (%)
# Text: (§1) Pharmacokinetic Assays in Mouse and Rat
# (§2) The following are assays that may be used to evaluate the pharmacokinetic properties of Formula (I) in mouse or rat. The assays follow a common procedure recited below.
# (§3) 1. […] For PO (oral gavage), DMSO/PEG400 (10:90). Formulations freshly prepared on the day of dosing or prior to dosing. Storage at room temperature.
# (§4) 2. Test Species: For Mouse: Male CD1 strain, approximately 6-8 weeks in age, approximately 20-30 g. For Rat: Male Sprague-Dawley strain, approximately 6-8 weeks in age, approximately 200-300 g.
# (§5) 3. Dose Level: For IV, 3 mg/kg. For PO, 10 mg/kg.
# (§6) 4. Number of animals: 3 per assay.
# (§7) 5. PK time points: For IV (plasma): 5 min, 15 min, 1, 2, 4, 6, 8, 24 h post dose. For PO (plasma): 15 min, 30 min, 1, 2, 4, 6, 8, 24 h post dose.
# (§8) 6. Blood Sample Collection and Processing. Blood was collected (˜0.2 mL per time point) from jugular vein. Blood of each sample was transferred into plastic micro centrifuge tubes containing anticoagulant of EDTA-K2. Blood samples were centrifuged at 2,000 g for 5 minutes at 4° C. to obtain plasma.
# (§9) 7. Samples Analysis: Plasma samples were analyzed using LC/MS/MS method, and pharmacokinetic parameters (half-life: t1/2; oral bioavailability: F; volume of distribution: Vss).
# CFA-induced arthritis [2] = assay: Adjuvant-induced arthritis model in rat: Mechanical Allodynia test (MA); type: in vivo; settings: SD rat, PO 3 days post CFA, compared to dexamethasone
# CFA-induced arthritis [3] = assay: Adjuvant-induced arthritis model in rat: Difference of Weight Bearing test (DWB); type: in vivo; settings: SD rat, PO 3 days post CFA, compared to dexamethasone
# [4] = Metabolic stability in human liver microsomes (in vitro t1/2); type: in vitro ADME; settings: human liver microsomes 0.5 mg/mL, 2 μM compound, % remaining at 60 min
# In short: (§10)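 Liver microsomes (0.5 mg/mL final) were incubated with 2 μM test compound in the presence of NADPH, with aliquots taken at 0, 15, 30, 45 and 60 min. Parent remaining was quantified by LC-MS/MS. k was taken from the slope of ln(% remaining) versus time, and t1/2 = −0.693/k.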
# [5] = Metabolic stability in mouse liver microsomes (in vitro t1/2); type: in vitro ADME; settings: mouse liver microsomes 0.5 mg/mL, 2 μM compound; for Mouse microsome % 60 min: % remaining at 60 min; for Mouse microsome t1/2, min: in vitro t1/2
# In short: as §10
# [6] = Pharmacokinetic assay in mouse (IV 3 mg/kg, PO 10 mg/kg); type: in vivo; settings: male, CD1, mouse, plasma, read-out: Mouse F (%)
# Text: as §1, §2, §3, §4, §5, §6, §7, §8, §9
# MCT1 = MCT1 (Homo sapiens (Human), UniProt P53985); assay: Assay 4: MCT1-mediated lactate transport in BT20 breast cancer cells; type: cell-based
# Experimental: (§11) Preparing BCECF-Loaded Cells
# (§12) 10 µL of a 30 mM DMSO stock of BCECF-AM ester (Life Technologies) is added and the cells are incubated at 37° C. for 5 min. The cells are pelleted (300 g, 5 min), washed once with 1 mL Tyrode's Solution, pH 7.4, re-pelleted (300 g, 5 min), and resuspended in 1 mL Tyrode's Solution, pH 7.4.
# Assay 4: MCT1-Mediated Lactate Transport in BT20 Breast Cancer Cells.
# Preparation of BCECF loaded cells are as described for Assay 1. Lactate transport assay is as described for Assay 1, except 10 mM L-lactate (rather than 50 mM) is added.
# [7] = Metabolic stability in rat liver microsomes (in vitro t1/2); type: in vitro ADME; settings: rat liver microsomes 0.5 mg/mL, 2 μM compound; for Rat microsome % 60 min: % remaining at 60 min
# In short: as §10
# MCT4 = MCT4 (Homo sapiens (Human), UniProt O15427); assay: Assay 3: MCT4-mediated lactate transport in MDA-MB-231 breast cancer cells; type: cell-based; settings: MDA-MB-231 cells
# Experimental: as §11, §12
# MCT4 activity may be assessed by monitoring the intracellular pH change that accompanies lactate/proton symport, using the pH-sensitive fluorescent dye 2′,7′-bis-(carboxyethyl)-5(6)-carboxyfluorescein (BCECF), in a manner similar to that previously reported for MCT1 and MCT4. The following is an exemplary procedure for assaying MCT4 activity of the compounds of Formula (I).
# Chain of MCT1 (P53985 whole entry): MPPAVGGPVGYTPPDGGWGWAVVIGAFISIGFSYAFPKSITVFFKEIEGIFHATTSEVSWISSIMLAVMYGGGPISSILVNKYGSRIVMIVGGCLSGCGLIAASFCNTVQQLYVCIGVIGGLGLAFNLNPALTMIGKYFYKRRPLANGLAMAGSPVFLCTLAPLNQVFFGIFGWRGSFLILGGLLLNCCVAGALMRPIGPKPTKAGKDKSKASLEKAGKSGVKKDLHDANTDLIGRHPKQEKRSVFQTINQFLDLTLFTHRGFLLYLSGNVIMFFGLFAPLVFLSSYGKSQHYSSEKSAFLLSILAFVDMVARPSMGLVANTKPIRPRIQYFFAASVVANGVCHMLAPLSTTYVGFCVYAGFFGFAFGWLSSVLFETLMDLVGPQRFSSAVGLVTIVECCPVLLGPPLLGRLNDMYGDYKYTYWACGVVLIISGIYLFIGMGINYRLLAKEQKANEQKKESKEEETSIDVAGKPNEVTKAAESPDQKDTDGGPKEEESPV
# Chain of MCT1 (P35613 140-385 partner): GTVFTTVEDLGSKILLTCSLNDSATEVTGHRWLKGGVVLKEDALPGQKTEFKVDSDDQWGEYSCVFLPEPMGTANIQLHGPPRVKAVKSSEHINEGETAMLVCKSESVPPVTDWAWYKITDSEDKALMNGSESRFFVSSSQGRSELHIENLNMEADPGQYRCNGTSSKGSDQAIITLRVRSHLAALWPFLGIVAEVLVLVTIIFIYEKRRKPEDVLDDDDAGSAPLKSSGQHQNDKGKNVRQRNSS
# Chain of MCT4 (O15427 whole entry, looked up): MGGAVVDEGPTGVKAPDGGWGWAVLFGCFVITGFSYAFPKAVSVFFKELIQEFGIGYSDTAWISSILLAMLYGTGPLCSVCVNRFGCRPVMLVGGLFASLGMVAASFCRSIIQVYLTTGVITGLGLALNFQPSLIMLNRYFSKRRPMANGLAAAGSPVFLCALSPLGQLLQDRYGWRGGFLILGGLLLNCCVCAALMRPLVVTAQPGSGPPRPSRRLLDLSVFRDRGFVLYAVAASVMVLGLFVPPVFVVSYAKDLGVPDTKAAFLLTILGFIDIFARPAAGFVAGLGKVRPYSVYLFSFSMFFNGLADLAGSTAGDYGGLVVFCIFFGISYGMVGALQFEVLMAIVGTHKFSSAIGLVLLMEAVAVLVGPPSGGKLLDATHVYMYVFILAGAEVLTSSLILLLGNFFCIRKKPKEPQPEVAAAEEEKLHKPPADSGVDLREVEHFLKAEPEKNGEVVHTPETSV
# Chain of MCT4 (P35613 whole entry partner, looked up): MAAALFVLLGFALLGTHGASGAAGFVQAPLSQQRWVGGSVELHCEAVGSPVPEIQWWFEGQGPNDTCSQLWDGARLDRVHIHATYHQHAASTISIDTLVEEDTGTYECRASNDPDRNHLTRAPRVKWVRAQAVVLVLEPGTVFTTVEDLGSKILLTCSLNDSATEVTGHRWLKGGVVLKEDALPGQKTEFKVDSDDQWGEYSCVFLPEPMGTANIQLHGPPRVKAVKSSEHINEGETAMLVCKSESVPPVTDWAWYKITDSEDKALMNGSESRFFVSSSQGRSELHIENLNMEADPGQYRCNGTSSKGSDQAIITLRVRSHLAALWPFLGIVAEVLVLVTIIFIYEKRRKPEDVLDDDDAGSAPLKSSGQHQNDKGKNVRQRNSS
SMILES,bioavailability [1] [%],Human microsome % 60 min [4] [%],Mouse microsome % 60 min [5] [%],bioavailability [6] [%],IC50 (MCT1; lactate transport (Table 26)) [nM],IC50 (MCT1; lactate transport (Table 27)) [nM],Rat microsome % 60 min [7] [%],IC50 (MCT4) [nM],"Mouse microsome t1/2, min [5]","Rat microsome t1/2, min ([7]; in vitro t1/2)","Mechanical Allodynia (Von Frey), Minimal Efficacious Dose (CFA-induced arthritis [2]) [mg/kg]","Difference in Weight Bearing, Minimal Efficacious Dose (CFA-induced arthritis [3]) [mg/kg]"
"CC(C)COc1cccc(-c2cc(COC(C)(C)C(=O)O)nn2-c2cccc3cnn(C)c23)c1 [Example 170, 2-methyl-2-([1-(1-methyl-1H-indazol-7-yl)-5-[3-(2-methylpropoxy)phenyl]-1H-pyrazol-3-yl]methoxy]propanoic acid]",18,87,99,100,,,95,,∞,∞,3,3
"CCn1ncc2ccc(-c3cc(COC(C)(C)C(=O)O)nn3-c3ccccc3N3CCCC3)cc21 [Example 229, 2-([5-(1-ethyl-1H-indazol-6-yl)-1-[2-(pyrrolidin-1-yl)phenyl]-1H-pyrazol-3-yl]methoxy)-2-methylpropanoic acid]",100,64,81,100,,,69,,,,3,3
"CCCn1ncc2ccc(-c3cc(COC(C)(C)C(=O)O)nn3-c3ccccc3N3CCCC3)cc21 [Example 250, 2-Methyl-2-([5-(1-propyl-1H-indazol-6-yl)-1-[2-(pyrrolidin-1-yl)phenyl]-1H-pyrazol-3-yl]methoxy]propanoic acid]",,,,,,41000,,1.3,,,,

# The next lines start with results.
bioavailability [1] [%],Human microsome % 60 min [4] [%],Mouse microsome % 60 min [5] [%],bioavailability [6] [%],IC50 (MCT1; lactate transport (Table 26)) [nM],IC50 (MCT1; lactate transport (Table 27)) [nM],Rat microsome % 60 min [7] [%],IC50 (MCT4) [nM],"Mouse microsome t1/2, min [5]","Rat microsome t1/2, min ([7]; in vitro t1/2)",SMILES,"Mechanical Allodynia (Von Frey), Minimal Efficacious Dose (CFA-induced arthritis [2]) [mg/kg]","Difference in Weight Bearing, Minimal Efficacious Dose (CFA-induced arthritis [3]) [mg/kg]"
64,82,95,100,> 100000,> 100000,,,,,"COc1cccc(-c2cc(COC(C)(C)C(=O)O)nn2Cc2ccccc2Cl)c1 [Example 14, 2-([1-[(2-Chlorophenyl)methyl]-5-(3-methoxyphenyl)1H-pyrazol-3-yl]methoxy)-2-methylpropanoic acid]",30,30
84,99,86,100,,,94,,,,"CC(C)(OCc1cc(-c2cccc(OC3CC3)c2)n(-c2ccccc2Cl)n1)C(=O)O [Example 110, 2-([1-(2-Chlorophenyl)-5-(3-cyclo-propoxyphenyl)-1H-pyrazol-3-yl]methoxy)-2-methylpropanoic acid]",10,10
,,,,,55,,98,,,"CC(C)(OCc1cc(-c2cc(OC3CC3)cs2)n(Cc2ccccc2Cl)n1)C(=O)O [Example 130, 2-([1-[(2-Chlorophenyl)methyl]-5-(4-cyclopropoxythien-2-yl)-1H-pyrazol-3-yl]methoxy)-2-methylpropanoic acid]",,
43,90,,89,,,98,,∞,,"CCn1ncc2ccc(-c3cc(COC(C)(C)C(=O)O)nn3Cc3ccccc3Cl)cc21 [Example 150, 2-([1-[(2-Chlorophenyl)methyl]-5-(1-ethyl-1H-indazol-6-yl)-1H-pyrazol-3-yl]-methoxy)-2-methylpropanoic Acid]",10,10
52,65,59,56,,,50,,,,"CC(C)(OCc1cc(-c2cccc(OC3CC3)c2)n(-c2ccccc2N2CCC2)n1)C(=O)O [Example 232, 2-([1-[2-(Azetidin-1-yl)phenyl]-5-(3-cyclopropoxyphenyl)-1H-pyrazol-3-yl]-methoxy)-2-methylpropanoic acid]",1,1
